Experimental data: US20240116892A1, “HETEROCYCLIC AMIDE AND UREA COMPOUNDS AS JAK2 INHIBITORS” (Ajax Therapeutics, Inc., priority 2022, published 2024)

Biological target: JAK2 (JH1 domain-catalytic, Y1007F, Y1008F) kinase (Homo sapiens (Human), UniProt O60674, Y1007F/Y1008F)
Experiment: JAK2 JH1 Domain Binding Assay
Conditions: qPCR readout
Summary of the method: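 JH1 catalytic domain (Y1007F/Y1008F) expressed as NFkB DNA-binding-domain fusion in HEK293 cells, DNA-tagged. Competition with immobilized biotinylated ligand on streptavidin beads, 1 h at RT in PBS/Tween/BSA/DTT; bound kinase eluted with free ligand and quantified by qPCR.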

JAK2 (JH1 domain-catalytic, Y1007F, Y1008F) kinase, sequence (O60674 849-1124 Y1007F/Y1008F): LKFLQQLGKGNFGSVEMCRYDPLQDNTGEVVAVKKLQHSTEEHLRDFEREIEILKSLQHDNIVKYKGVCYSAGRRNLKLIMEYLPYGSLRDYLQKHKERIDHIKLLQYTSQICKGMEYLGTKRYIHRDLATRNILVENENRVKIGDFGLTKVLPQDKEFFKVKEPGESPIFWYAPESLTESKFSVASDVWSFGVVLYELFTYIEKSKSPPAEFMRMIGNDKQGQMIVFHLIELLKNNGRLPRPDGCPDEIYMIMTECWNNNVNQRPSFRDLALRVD

| Kd [nM] | SMILES |
| --- | --- |
| 10 to 50 | CN(C(=O)Nc1cc(C(F)(F)F)cn(C)c1=O)[C@@H]1CCN(c2cnc3[nH]n(C)c(=O)c3c2)C[C@@H]1F [Example I-89-a, 1-((3S,4R)-3-fluoro-1-(2-methyl-3-oxo-2,3-dihydro-1H-pyrazolo[3,4-b]pyridin-5-yl)piperidin-4-yl)-1-methyl-3-(1-methyl-2-oxo-5-(trifluoromethyl)-1,2-dihydropyridin-3-yl)urea] |
| 10 to 50 | CN(C(=O)Nc1cc(C(F)(F)F)cn(C)c1=O)[C@H]1CCN(c2cnc3[nH]n(C)c(=O)c3c2)C[C@H]1F [Example I-89-b, 1-((3R,4S)-3-fluoro-1-(2-methyl-3-oxo-2,3-dihydro-1H-pyrazolo[3,4-b]pyridin-5-yl)piperidin-4-yl)-1-methyl-3-(1-methyl-2-oxo-5-(trifluoromethyl)-1,2-dihydropyridin-3-yl)urea] |
| 10 to 50 | CN(C(=O)Nc1cc(C(F)(F)F)cn(C)c1=O)[C@@H]1CCN(c2cnc3[nH]n(C)c(=O)c3c2)C[C@H]1F [Example I-90-b, 1-((3R,4R)-3-fluoro-1-(2-methyl-3-oxo-2,3-dihydro-1H-pyrazolo[3,4-b]pyridin-5-yl)piperidin-4-yl)-1-methyl-3-(1-methyl-2-oxo-5-(trifluoromethyl)-1,2-dihydropyridin-3-yl)urea] |
| 50 to 1000 | CN(C(=O)Nc1cc(C(F)(F)F)cn(C)c1=O)C1CCN(c2cnc3cncn3c2)CC1 [Example I-91, 1-(1-(imidazo[1,5-a]pyrimidin-3-yl)piperidin-4-yl)-1-methyl-3-(1-methyl-2-oxo-5-(trifluoromethyl)-1,2-dihydropyridin-3-yl)urea] |
| 10 to 50 | CNc1cn2ncc(N3CCC(N(C)C(=O)Nc4cc(C(F)(F)F)cn(C)c4=O)CC3)c2cn1 [Example I-92, 1-methyl-3-(1-methyl-2-oxo-5-(trifluoromethyl)-1,2-dihydropyridin-3-yl)-1-(1-(6-(methylamino)pyrazolo[1,5-a]pyrazin-3-yl)piperidin-4-yl)urea] |
| 10 to 50 | Cn1cc(C(F)(F)F)cc(NC(=O)N2CC=CC23CCN(c2cnc4[nH]cc(F)c4n2)CC3)c1=O [Example I-93, 8-(7-fluoro-5H-pyrrolo[2,3-b]pyrazin-2-yl)-N-(1-methyl-2-oxo-5-(trifluoromethyl)-1,2-dihydropyridin-3-yl)-1,8-diazaspiro[4.5]dec-3-ene-1-carboxamide] |
| < 10 | COc1c[nH]c2ncc(N3CCC(N(C)C(=O)Nc4cc(C(F)(F)F)cn(C)c4=O)CC3)cc12 [Example I-94, 1-(1-(3-methoxy-1H-pyrrolo[2,3-b]pyridin-5-yl)piperidin-4-yl)-1-methyl-3-(1-methyl-2-oxo-5-(trifluoromethyl)-1,2-dihydropyridin-3-yl)urea] |
| < 10 | CN(C(=O)Nc1cc(C(F)(F)F)cn(C)c1=O)[C@H]1CCN(c2cnc3cn[nH]c3c2)C[C@H]1F [Example I-95-a, 1-((3R,4S)-3-fluoro-1-(1H-pyrazolo[4,3-b]pyridin-6-yl)piperidin-4-yl)-1-methyl-3-(1-methyl-2-oxo-5-(trifluoromethyl)-1,2-dihydropyridin-3-yl)urea] |
| < 10 | CN(C(=O)Nc1cc(C(F)(F)F)cn(C)c1=O)[C@@H]1CCN(c2cnc3cn[nH]c3c2)C[C@@H]1F [Example I-95-b, 1-((3S,4R)-3-fluoro-1-(1H-pyrazolo[4,3-b]pyridin-6-yl)piperidin-4-yl)-1-methyl-3-(1-methyl-2-oxo-5-(trifluoromethyl)-1,2-dihydropyridin-3-yl)urea] |
| 10 to 50 | CN(C(=O)Nc1cc(C(F)(F)F)cn(C)c1=O)[C@@H]1CCN(c2cnc3[nH]n(C)c(=O)c3c2)CC1(F)F [Example I-96-a, (R)-1-(3,3-difluoro-1-(2-methyl-3-oxo-2,3-dihydro-1H-pyrazolo[3,4-b]pyridin-5-yl)piperidin-4-yl)-1-methyl-3-(1-methyl-2-oxo-5-(trifluoromethyl)-1,2-dihydropyridin-3-yl)urea] |
| < 10 | CN(C(=O)Nc1cc(C(F)(F)F)cn(C)c1=O)[C@H]1CCN(c2cnc3[nH]n(C)c(=O)c3c2)CC1(F)F [Example I-96-b, (S)-1-(3,3-difluoro-1-(2-methyl-3-oxo-2,3-dihydro-1H-pyrazolo[3,4-b]pyridin-5-yl)piperidin-4-yl)-1-methyl-3-(1-methyl-2-oxo-5-(trifluoromethyl)-1,2-dihydropyridin-3-yl)urea] |
| < 10 | CNc1n[nH]c2ncc(N3CC[C@@H](N(C)C(=O)Nc4cc(C(F)(F)F)cn(C)c4=O)[C@@H](F)C3)cc12 [Example I-97-a, 1-((3S,4R)-3-fluoro-1-(3-(methylamino)-1H-pyrazolo[3,4-b]pyridin-5-yl)piperidin-4-yl)-1-methyl-3-(1-methyl-2-oxo-5-(trifluoromethyl)-1,2-dihydropyridin-3-yl)urea] |
| < 10 | CNc1n[nH]c2ncc(N3CC[C@H](N(C)C(=O)Nc4cc(C(F)(F)F)cn(C)c4=O)[C@H](F)C3)cc12 [Example I-97-b, 1-((3R,4S)-3-fluoro-1-(3-(methylamino)-1H-pyrazolo[3,4-b]pyridin-5-yl)piperidin-4-yl)-1-methyl-3-(1-methyl-2-oxo-5-(trifluoromethyl)-1,2-dihydropyridin-3-yl)urea] |
| 10 to 50 | Cn1cc(C(F)(F)F)cc(NC(=O)N2CC=CC23CCN(c2cnc4[nH]cc(C#N)c4n2)CC3)c1=O [Example I-98, 8-(7-cyano-5H-pyrrolo[2,3-b]pyrazin-2-yl)-N-(1-methyl-2-oxo-5-(trifluoromethyl)-1,2-dihydropyridin-3-yl)-1,8-diazaspiro[4.5]dec-3-ene-1l-carboxamide] |
| < 10 | CNc1n[nH]c2ncc(N3CCC(N(C)C(=O)Nc4cc(C(F)(F)F)cn(C)c4=O)CC3)cc12 [Example I-99, 1-methyl-3-(1-methyl-2-oxo-5-(trifluoromethyl)-1,2-dihydropyridin-3-yl)-1-(1-(3-(methylamino)-1H-pyrazolo[3,4-b]pyridin-5-yl)piperidin-4-yl)urea] |
| < 10 | CN(C(=O)Nc1cc(C(F)(F)F)cn(C)c1=O)[C@H]1CCN(c2cnc3[nH]c(=O)[nH]c3c2)C[C@H]1F [Example I-100-a, 1-((3R,4S)-3-fluoro-1-(2-oxo-2,3-dihydro-1H-imidazo[4,5-b]pyridin-6-yl)piperidin-4-yl)-1-methyl-3-(1-methyl-2-oxo-5-(trifluoromethyl)-1,2-dihydropyridin-3-yl)urea] |
| < 10 | CN(C(=O)Nc1cc(C(F)(F)F)cn(C)c1=O)[C@@H]1CCN(c2cnc3[nH]c(=O)[nH]c3c2)C[C@@H]1F [Example I-100-b, 1-((3S,4R)-3-fluoro-1-(2-oxo-2,3-dihydro-1H-imidazo[4,5-b]pyridin-6-yl)piperidin-4-yl)-1-methyl-3-(1-methyl-2-oxo-5-(trifluoromethyl)-1,2-dihydropyridin-3-yl)urea] |
| 1000 to 5000 | CN(C(=O)Nc1cc(C(F)(F)F)cn(C)c1=O)[C@@H]1CCN(c2cnc3[nH]nc(OC4COC4)c3c2)C[C@@H]1F [Example I-101-a, 1-((3S,4R)-3-fluoro-1-(3-(oxetan-3-yloxy)-1H-pyrazolo[3,4-b]pyridin-5-yl)piperidin-4-yl)-1-methyl-3-(1-methyl-2-oxo-5-(trifluoromethyl)-1,2-dihydropyridin-3-yl)urea] |
